# Test results: PubChem BioAssay AID1259420 (Broad Institute, 2018)
# “And” between values parts separate entries of the source, which are not always exact repeats. Identical values can stand only once. Inconclusive results are not listed. The source made the active and inactive calls. No rule for the calls is given here.
# Tested on: Toxoplasma gondii growth in host cells, no IFN-gamma
# Experiment: compound activity on host-cell Toxoplasma growth – dose response (AID 1259420);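 also: host cells were HeLa; final incubation lasted 72 hours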
row,Compound,AC50
1,O=C(Nc1ccc(F)cc1)N1C[C@@H]2N[C@H](C1)C2c1ccc(/C=C/c2ccccc2)cc1 (some centres not stated),9.87 µM
2,CCc1cnc(N2[C@@H](C#N)[C@@H](c3ccc(C4=CCCCC4)cc3)[C@@H]2CO)s1,> 20 µM (inactive)
3,O=C1c2c(O)ccc(O)c2C(=O)c2c(NCCNCCO)ccc(NCCNCCO)c21,0.209 µM
4,COc1ccccc1-c1ccc(C2[C@H]3CNC[C@@H]2N3S(=O)(=O)c2ccc(F)cc2)cc1 (some centres not stated),> 20 µM (inactive)
5,COCC1CN(C(=O)c2cc(C)on2)Cc2c1cnn2CC1CC1 (configuration not stated),> 39 µM (inactive)
6,O=C(C[C@@H]1CC[C@H]2[C@@H](COC[C@@H](O)CN2Cc2cc(F)ccc2F)O1)NCc1ccc(Oc2ccccc2)cc1,16.9 µM
7,O=C(CC1CCC2(CC1)CCN(c1ncc(F)cn1)CC2)N1CC=CC1,21.7 µM
8,Oc1[nH]c2ccccc2c1N=Nc1nc(Nc2ccccc2)nc(N2CCOCC2)n1,16.9 µM
9,COc1cccc(S(=O)(=O)N2CCCCN3[C@H](CO)[C@H](c4ccc(-c5ccccc5)cc4)[C@H]3C2)c1,13.1 µM
10,COc1cccc(NC(=O)N2CC(=O)N3[C@H](CO)[C@H](c4ccc(C#CCC5CCCC5)cc4)[C@H]3C2)c1,13.9 µM and 16.2 µM
11,c1ccc2c(Oc3nc(Nc4ccc(N5CCOCC5)cc4)c4ncn(C5CCCCC5)c4n3)cccc2c1,12.7 µM
12,O=S(=O)(c1ccc(-c2ccccc2)cc1)N1C[C@@H]2N[C@H](C1)C2c1ccc(-c2ccncc2)cc1 (some centres not stated),16.1 µM
13,N#Cc1ccc(-c2ccc3c(c2)[C@H]2[C@H](CCN2C(=O)C2CCCCC2)[C@H](CO)N3)cc1,16.9 µM
14,O=C(NC1CCC12CCN(Cc1ccoc1)CC2)c1cnccn1 (configuration not stated),> 39 µM (inactive)
15,COc1cc(CN2C[C@@H]3N[C@H](C2)C3c2ccc(-c3ccc(C#N)cc3)cc2)cc(OC)c1 (some centres not stated),7.99 µM
16,COc1cccc(NC(=O)N2CC(=O)N3[C@H](CO)[C@@H](c4ccc(C#CCC5CCCC5)cc4)[C@@H]3C2)c1,14.4 µM and 13.4 µM
17,COCCN1C(=O)CCC12CCC(NC(=O)c1cc(C)on1)CC2 (configuration not stated),> 39 µM (inactive)
18,COCCn1cc2c(n1)C(CNC(=O)CS(C)(=O)=O)OCC2 (configuration not stated),> 39 µM (inactive)
19,O=C1CNC[C@H]2[C@@H](c3ccc(Br)cc3)[C@H](CO)N12,35.9 µM
20,C/C=C/c1ccc([C@H]2[C@@H](C#N)N(C(=O)NC3CCCCC3)[C@H]2CO)cc1,20.9 µM
21,CCCNC(=O)N1CC(=O)N2[C@@H](CO)[C@@H](c3ccc(C#Cc4cccc(OC)c4)cc3)[C@@H]2C1,31.2 µM

row,Compound,AC50
1,CCc1cc(C(=O)Nc2ccc(C)cc2-c2cc(C)[nH]n2)c2c(C)noc2n1,18.2 µM
2,CN1C(=O)c2cc(NC(=O)c3cccc(F)c3)ccc2OC[C@@H]2O[C@H](CC(=O)NCC3CCCCC3)CC[C@@H]21,> 39 µM (inactive)
3,CN(Cc1ccccn1)C(=O)C1=NOC2(CCN(S(=O)(=O)c3ccc(F)cc3)C2)C1 (configuration not stated),> 39 µM (inactive)
4,CCCC(C)c1c(-c2ccccc2)ncn1Cc1cnc(C)cn1 (configuration not stated),36.1 µM
5,COC(=O)C1CC23C=CNC4CCC5(c6ccccc6NC15C2C)C43 (configuration not stated),19.4 µM
6,CN1c2ccc(-c3ccccc3)cc2[C@@H]2[C@@H](CCN2C(=O)CC2CC2)[C@@H]1CO,25.3 µM
7,O=C(c1ccc(F)cc1)N1CC(=O)N2[C@H](CO)[C@H](c3ccc(C#CCC4CCCC4)cc3)[C@@H]2C1,14.7 µM
8,COc1ccccc1NC(=O)N1CCCCN2[C@H](CO)[C@@H](c3ccc(-c4cccc(C#N)c4)cc3)[C@@H]2C1,16.4 µM
9,O=C(Nc1cccnc1)c1cc(-c2cnc(-c3ccccc3)nc2)cn1CC1CC1,27.9 µM and 19.8 µM
10,COc1ccc(-c2cnc3n2CCNC32CCN(C(=O)N3CCOCC3)CC2)cc1,> 39 µM (inactive)
11,COc1ccc(NC(=O)N2CCCCN3[C@H](CO)[C@@H](c4ccc(-c5ccccc5F)cc4)[C@@H]3C2)cc1,19.1 µM
12,COc1ccc(NC(=O)N2CCCCN3[C@H](C2)[C@@H](c2ccc(-c4ccccc4F)cc2)[C@@H]3CO)cc1,35.8 µM
13,CC(C)(O)CC(=O)NCCn1ccc2ncnc(Nc3ccc(Oc4cccc(C(F)(F)F)c4)c(Cl)c3)c21,> 39 µM (inactive)
14,N#Cc1ccc(-c2ccc(C3[C@@H]4CN(C(=O)C5CCCCC5)C[C@H]3N4)cc2)cc1 (some centres not stated),16.7 µM
15,CC(C)NC(=O)[C@H]1C[C@H]2CCN(CCOCc3ccccc3)C[C@@H]2O1,> 39 µM (inactive)
16,NCCCCCCCCCCNS(=O)(=O)c1cccc2c(Cl)cccc12,15.9 µM
17,O=C(Nc1ccc(Cl)cc1)N1[C@@H]2CNC[C@H]1C2c1ccc(-c2ccccc2)cc1 (some centres not stated),6.4 µM
18,CCCCN(C)C(=O)c1cnc(-c2noc3cc(NCC4CC4)ccc23)s1,20.4 µM
19,O=C(CCCCCNc1nc(=S)[nH]c2ccccc12)N1CCC(O)(c2cccc(C(F)(F)F)c2)CC1,> 39 µM (inactive)
20,CC(C)C#Cc1ccc([C@H]2[C@@H](C#N)N(C(=O)c3cccc(F)c3)[C@H]2CO)cc1,26.4 µM
21,COCC(=O)N1CC(=O)N2[C@H](CO)[C@@H](c3ccc(C#CC4CC4)cc3)[C@@H]2C1,> 39 µM (inactive)
